How the values were obtained:
[1] = Blood alcohol level (BAC test strip) in human subjects after alcohol consumption, glucarate versus placebo; format: in vivo; settings: twenty subjects
From the text: (§1) Twenty subjects, currently taking no form of d-glucarate, were recruited for the evaluation. On two separate occasions (at least 5 days apart) the subjects voluntarily consumed alcoholic beverages. The amount ingested was at their discretion, however it was the exact same about on both occasions and roughly over the same duration (+/−½ hour).
(§2) On the first occasion, the subject was asked to take a placebo, while on the second occasion the subject was asked to take d-glucarate. The subjects were not informed what they were taking on either occasion, or of the difference between the placebo and chemical compound.
On the first occasion the placebo was administered prior to alcohol ingestion, after alcohol ingestion then 8 hours following ingestion.
A BAC was used to determine the Blood alcohol level after consumption then 8 hours later.
(§3) On the second occasion 1000 mg of Potassium Hydrogen Glucarate was administered before alcohol consumption, then 500 mg after alcohol consumption, then 1000 mg 8 hours later.
A BAC test strip was used to determine the Blood alcohol level after consumption then 8 hours later.

hangover symptoms = experiment: Subject questionnaire on hangover symptoms and overall feelings after alcohol consumption, glucarate versus placebo; format: in vivo, human; settings: twenty subjects, questionnaire 12-14 hours after each occasion
From the text: as §1, §2, §3
Referring to FIG. 2, 12-14 hours after each occasion the subjects filled out the questionnaire to reflect each subject's observation of hangover symptoms. A 1 on the scale represents the most severe of symptoms, and a 5 represents neutral feeling or no symptom. The black circle indicates the average on the 20 subjects studied.
Referring to FIG. 3, the last parameter measured was the subjects overall feelings, a rating of 1 being the most unpleasant to a rating of 5 representing the most pleasant of each subject's typical feeling.

Compound: O=C(O)[C@@H](O)[C@@H](O)[C@H](O)[C@@H](O)C(=O)[O-].[K+] [glucarate compound, Potassium Hydrogen Glucarate]
- decrease in the total level of recirculating alcohol relative to a placebo ([1]; after rest and a duration of 8 hours, 1000 mg before and 500 mg after alcohol consumption): 55%
- reduction in the amount of alcohol recirculating within the blood stream relative to a placebo ([1]; immediately after alcohol consumption, 1000 mg before alcohol consumption, oral): 18%
- hangover symptoms and overall feelings, average index on scale 1-5 (hangover symptoms): reduced the subjects' hangover tendencies
